In patent US10653693B2, “PRMT5 inhibitors and uses thereof” (Epizyme, Inc., priority 2014, dated 2020):
Where two headings read alike, the source gives them in different places.

Key:
[1] = system: MDM4 splicing in Z138 cells; assay: MDM4 splicing analysis (PCR); assay type: cell-based, Human; settings: Z138 mantle cell lymphoma cells
Experimental: Z138 cells were seeded in 10 cm tissue culture dishes at a density of approximately 3×10^6 cells per dish in a volume of 10 mL IMDM+10% horse serum media. Cells were treated with 200 nM or 1 μM of compound at 0.5% DMSO for 1, 2, or 3 days. Cell pellets were harvested by washing once with PBS, […], centrifuging at 1000×g for 5 minutes, then storing at −80° C. until ready to process.
RNA was extracted from cell pellets. First, pellets were thawed on ice and then quickly resuspended in 500 μL Trizol reagent. Samples were then incubated 2-3 minutes at room temperature and vortexed for 30 sec to completely homogenize the lysate. 50 μL of water and 50 μL of chloroform were added to each Trizol-cell mixture, then each sample was vortexed for 30 sec to mix completely. Samples were loaded onto MaXtract High Density tubes and spun at 14,000 RPM for 5 minutes. The clear supernatant (aqueous phase) from each tube was transferred to a new 2 mL tube and 2× volume of freshly prepared 70% ethanol was added to each sample. Samples were loaded onto RNeasy spin columns (part of Qiagen RNeasy Mini kit). Columns were centrifuged at 9000×g for 15 sec and flow-through was discarded. 350 μL Buffer RW1 was added to each column and samples were centrifuged at […] for 15 sec and flow-through was discarded. […] RNA concentration was analyzed on a Nanodrop. […]

Mino = assay: Long-term proliferation (LTP) assay; assay type: cell-based; settings: Homo sapiens
Maver-1 xenograft model = assay: 21 day mantle cell lymphoma xenograft study: TGI and tumor methyl mark; assay type: in vivo; settings: all doses tested, day 21
Experimental: Data presented in this example were determined after analysis of 21 day samples of mantle cell lymphoma tumors. Cmin PK samples were taken prior to the last dose on day 21. Tumors were excised, weighed and processed for methyl mark. Methyl mark reduction was measured in tumor samples and is shown as percent of vehicle control (POC). Both SYM11 and sDMA Elisa were used to measure methyl mark and the data shown is averaged from 10 animals. Tumor growth inhibition was determined using tumor volume reduction at day 21 expressed as a percent of POC. In vivo inhibition curves were also generated and IC50 values determined. Plasma levels from each group are averaged from 5 animals. […] The average body weight loss (BWL) in all groups was <6%. All doses tested show >50% TGI. […] The average BWL in all groups was <4%. The average BWL in all groups was <8%, except in the 100 mg/kg does group were 4 animals exceeded BWL of 15%.

[2] = system: sDMA methylation in bone marrow (surrogate tissue); assay: sDMA Western blot of bone marrow samples from Z-138 efficacy study; assay type: in vivo; settings: bone marrow harvested on day 21

For `O=C(NC[C@H](O)CN1CCc2ccccc2C1)c1ccnc(NC2CCC2)c1` [Formula C], the MDM4 splicing [1] was “attenuates”.

Molecule `CC(=O)N1CCC(Nc2cc(C(=O)NC[C@H](O)CN3CCc4ccccc4C3)ccn2)CC1` [Formula B] has an IC50 (Mino; 264 h, 11-day treatment, N = 1, read-out: Formula B LTP IC50) of 119 nM, an IC90 (Mino; 264 h, 11-day treatment, N = 1, read-out: Formula B LTP IC90) of 611 nM and an IC50 (Mino; Table 3, read-out: LTP IC50) of 64.6 nM. The “Tumor growth inhibition (TGI)” value (Maver-1 xenograft model) was over 50% and the “levels of sDMA methylation in bone marrow” value [2] was “More of a dose-dependent response”.
